Measurements: the supplement of paper PMC10307832

Key:
Assay in all cases: relative viability (nuclei count vs DMSO), 5 days (fraction); higher = more cells survive
HARA = tested on: HARA
Procedure, shortened: (§1)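 Cells from lung cancer lines were seeded into 1536-well plates and, one day later, dosed by pin tool. Treatments were either a single drug or a fixed dose of an anchor drug with five library-drug doses (not always all listed) in √10 steps. After 5 days, nuclei were stained in a one-step fixation (final 0.05% Triton X-100, 1% formaldehyde, 1 ug/ml Hoechst) and counted on 4× images, and relative viability is the treated-to-vehicle nuclei ratio, as the median of duplicate plates.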

LU99A = tested on: LU99A
Procedure, shortened: as §1

UMC-11 = tested on: UMC-11
Procedure, shortened: as §1

NCI-H2085 = tested on: NCI-H2085
Procedure, shortened: as §1

NCI-H2126 = tested on: NCI-H2126
Procedure, shortened: as §1

NCI-H1355 = tested on: NCI-H1355
Procedure, shortened: as §1

EPLC-272H = tested on: EPLC-272H
Procedure, shortened: as §1

HCC-44 = tested on: HCC-44
Procedure, shortened: as §1

NCI-H2023 = tested on: NCI-H2023
Procedure, shortened: as §1

NCI-H838 = tested on: NCI-H838
Procedure, shortened: as §1

PC-14 = tested on: PC-14
Procedure, shortened: as §1

NCI-H1915 = tested on: NCI-H1915
Procedure, shortened: as §1

SW 1573 = tested on: SW 1573
Procedure, shortened: as §1

HOP-62 = tested on: HOP-62
Procedure, shortened: as §1

NCI-H1651 = tested on: NCI-H1651
Procedure, shortened: as §1

NCI-H358 = tested on: NCI-H358
Procedure, shortened: as §1

NCI-H1993 = tested on: NCI-H1993
Procedure, shortened: as §1

NCI-H2347 = tested on: NCI-H2347
Procedure, shortened: as §1

NCI-H650 = tested on: NCI-H650
Procedure, shortened: as §1

COR-L23 = tested on: COR-L23
Procedure, shortened: as §1

HCC-15 = tested on: HCC-15
Procedure, shortened: as §1

LC-2-ad = tested on: LC-2-ad
Procedure, shortened: as §1

O=c1cc(N2CCOCC2)oc2c(-c3cccc4c3sc3ccccc34)cccc12 + Nc1nc2[nH]cc(CCc3ccc(C(=O)N[C@@H](CCC(=O)O)C(=O)O)cc3)c2c(=O)[nH]1 [Pemetrexed] (partner 0.2 µM)
relative viability (HARA; first compound 0.01 µM): 0.217
relative viability (HARA; first compound 0.03162 µM): 0.271
relative viability (HARA; first compound 0.1 µM): 0.225
relative viability (HARA; first compound 0.3162 µM): 0.238
relative viability (HARA; first compound 1 µM): 0.262
relative viability (LU99A; first compound 0.01 µM): 0.177
relative viability (LU99A; first compound 0.03162 µM): 0.195
relative viability (LU99A; first compound 0.1 µM): 0.139
relative viability (LU99A; first compound 0.3162 µM): 0.19
relative viability (LU99A; first compound 1 µM): 0.176
relative viability (UMC-11; first compound 0.01 µM): 0.738
relative viability (UMC-11; first compound 0.03162 µM): 0.66
relative viability (UMC-11; first compound 0.1 µM): 0.868
relative viability (UMC-11; first compound 0.3162 µM): 0.805
relative viability (UMC-11; first compound 1 µM): 0.789
relative viability (NCI-H2085; first compound 0.01 µM): 0.905
relative viability (NCI-H2085; first compound 0.03162 µM): 0.851
relative viability (NCI-H2085; first compound 0.1 µM): 0.849
relative viability (NCI-H2085; first compound 0.3162 µM): 0.865
relative viability (NCI-H2085; first compound 1 µM): 0.867
relative viability (NCI-H2126; first compound 0.01 µM): 0.713
relative viability (NCI-H2126; first compound 0.03162 µM): 0.72
relative viability (NCI-H2126; first compound 0.1 µM): 0.636
relative viability (NCI-H2126; first compound 0.3162 µM): 0.668
relative viability (NCI-H2126; first compound 1 µM): 0.674
relative viability (NCI-H1355; first compound 0.01 µM): 1.12
relative viability (NCI-H1355; first compound 0.03162 µM): 0.915
relative viability (NCI-H1355; first compound 0.1 µM): 1.05
relative viability (NCI-H1355; first compound 0.3162 µM): 1.1
relative viability (NCI-H1355; first compound 1 µM): 0.981
relative viability (EPLC-272H; first compound 0.01 µM): 0.344
relative viability (EPLC-272H; first compound 0.03162 µM): 0.361
relative viability (EPLC-272H; first compound 0.1 µM): 0.334
relative viability (EPLC-272H; first compound 0.3162 µM): 0.368
relative viability (EPLC-272H; first compound 1 µM): 0.442
relative viability (HCC-44; first compound 0.01 µM): 0.667
relative viability (HCC-44; first compound 0.03162 µM): 0.643
relative viability (HCC-44; first compound 0.1 µM): 0.587
relative viability (HCC-44; first compound 0.3162 µM): 0.591
relative viability (HCC-44; first compound 1 µM): 0.664
relative viability (NCI-H2023; first compound 0.01 µM): 0.284
relative viability (NCI-H2023; first compound 0.03162 µM): 0.276
relative viability (NCI-H2023; first compound 0.1 µM): 0.227
relative viability (NCI-H2023; first compound 0.3162 µM): 0.249
relative viability (NCI-H2023; first compound 1 µM): 0.161
relative viability (NCI-H838; first compound 0.01 µM): 0.255
relative viability (NCI-H838; first compound 0.03162 µM): 0.237
relative viability (NCI-H838; first compound 0.1 µM): 0.241
relative viability (NCI-H838; first compound 0.3162 µM): 0.227
relative viability (NCI-H838; first compound 1 µM): 0.26
relative viability (PC-14; first compound 0.01 µM): 0.133
relative viability (PC-14; first compound 0.03162 µM): 0.153
relative viability (PC-14; first compound 0.1 µM): 0.131
relative viability (PC-14; first compound 0.3162 µM): 0.114
relative viability (PC-14; first compound 1 µM): 0.132
relative viability (NCI-H1915; first compound 0.01 µM): 0.495
relative viability (NCI-H1915; first compound 0.03162 µM): 0.534
relative viability (NCI-H1915; first compound 0.1 µM): 0.486
relative viability (NCI-H1915; first compound 0.3162 µM): 0.441
relative viability (NCI-H1915; first compound 1 µM): 0.486
relative viability (SW 1573; first compound 0.01 µM): 0.847
relative viability (SW 1573; first compound 0.03162 µM): 0.937
relative viability (SW 1573; first compound 0.1 µM): 0.824
relative viability (SW 1573; first compound 0.3162 µM): 0.857
relative viability (SW 1573; first compound 1 µM): 0.778
relative viability (HOP-62; first compound 0.01 µM): 0.303
relative viability (HOP-62; first compound 0.03162 µM): 0.344
relative viability (HOP-62; first compound 0.1 µM): 0.276
relative viability (HOP-62; first compound 0.3162 µM): 0.39
relative viability (HOP-62; first compound 1 µM): 0.384
relative viability (NCI-H1651; first compound 0.01 µM): 0.547
relative viability (NCI-H1651; first compound 0.03162 µM): 0.564
relative viability (NCI-H1651; first compound 0.1 µM): 0.569
relative viability (NCI-H1651; first compound 0.3162 µM): 0.552
relative viability (NCI-H1651; first compound 1 µM): 0.578
relative viability (NCI-H358; first compound 0.01 µM): 0.166
relative viability (NCI-H358; first compound 0.03162 µM): 0.179
relative viability (NCI-H358; first compound 0.1 µM): 0.181
relative viability (NCI-H358; first compound 0.3162 µM): 0.18
relative viability (NCI-H358; first compound 1 µM): 0.173
relative viability (NCI-H1993; first compound 0.01 µM): 0.624
relative viability (NCI-H1993; first compound 0.03162 µM): 0.524
relative viability (NCI-H1993; first compound 0.1 µM): 0.621
relative viability (NCI-H1993; first compound 0.3162 µM): 0.54
relative viability (NCI-H1993; first compound 1 µM): 0.553
relative viability (NCI-H2347; first compound 0.01 µM): 0.458
relative viability (NCI-H2347; first compound 0.03162 µM): 0.472
relative viability (NCI-H2347; first compound 0.1 µM): 0.415
relative viability (NCI-H2347; first compound 0.3162 µM): 0.433
relative viability (NCI-H2347; first compound 1 µM): 0.44
relative viability (NCI-H650; first compound 0.01 µM): 0.764
relative viability (NCI-H650; first compound 0.03162 µM): 1.08
relative viability (NCI-H650; first compound 0.3162 µM): 0.85
relative viability (NCI-H650; first compound 1 µM): 0.786
relative viability (COR-L23; first compound 0.01 µM): 0.189
relative viability (COR-L23; first compound 0.03162 µM): 0.204
relative viability (COR-L23; first compound 0.1 µM): 0.203
relative viability (COR-L23; first compound 0.3162 µM): 0.201
relative viability (COR-L23; first compound 1 µM): 0.204
relative viability (HCC-15; first compound 0.01 µM): 0.214
relative viability (HCC-15; first compound 0.03162 µM): 0.221
relative viability (HCC-15; first compound 0.1 µM): 0.225
relative viability (HCC-15; first compound 0.3162 µM): 0.205
relative viability (HCC-15; first compound 1 µM): 0.195
relative viability (LC-2-ad; first compound 0.01 µM): 0.267
relative viability (LC-2-ad; first compound 0.03162 µM): 0.284
relative viability (LC-2-ad; first compound 0.1 µM): 0.282
relative viability (LC-2-ad; first compound 0.3162 µM): 0.279
relative viability (LC-2-ad; first compound 1 µM): 0.304
